The values below come from US8895079B2, “Combinations of botanical extracts for promoting cardiovascular health” (National Research Council of Canada, priority 2005, dated 2014).

The experiment can be described thus: Example 1: weekly body weight and daily feed intake. In kind it is in vivo, Male Golden Syrian hamsters. The settings on record: Example 1, weekly body weight over 4 weeks, FIG. 5. The method, then:
Male Golden Syrian Hamsters were purchased from Charles River Co. housed individually in cages for two weeks prior to the commencement of the study. During this adjustment period, animals were fed with regular rodent chow diet with free access to both food and water. A total of 60 hamsters were weighed and randomly assigned to one of four groups of 15 animals each. Animals are subjected to a temperature-controlled environment with a 12:12 h light/dark cycle. Each group was fed with one of the four isocaloric experimental diets for a 4 week period. […] During the course of the experiment, animals were weighed weekly and food consumption was determined on a daily basis over the course of the experiment. During the course of the experiment, data were obtained with regard to food consumption and bodyweight so that the dose of BBRCI was maintained on a mg/kg basis as the animals grew over the 4 weeks experimental period. […] This may have important implications on weight control, healthy weight management strategies, and body composition (increase lean body mass) in humans and animals. […] Thereafter, significant differences in food intake was observed from days 22-25 but this effect disappeared during days 25-28 as a small surgical intervention was performed on each animal on day 25 on the neck area of the animal, which reduced food consumption in each treatment. […]

`COc1ccc2cc3[n+](cc2c1OC)CCc1cc2c(cc1-3)OCO2` [BBRCI, Berberine chloride]: the body weight entry is given as “trend toward reduced body weights after two weeks”.
